What was measured:
[1] = molecular target: KDR (phospho-KDR, VEGF165-stimulated HUVEC cells) (Homo sapiens (Human), UniProt P35968); test: KDR autophosphorylation ELISA in HUVEC cells (Example G); type: cell-based; conditions: cellular activity; KDR autophosphorylation ELISA in HUVEC cells
In short: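 Cells seeded, grown 24 h at 37 °C, starved 24 h serum-free; cpd 8-pt curve, 0.3% DMSO, 1 h; VEGF165 100 ng/mL, 5 min; cold PBS wash, lysis with orthovanadate and protease/phosphatase inhibitors; pKDR ELISA; IC50 by 4-parameter logistic regression.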

[2] = molecular target: Met (phospho-Met, HGF-stimulated PC-3 prostate cancer cells) (Homo sapiens (Human), UniProt P08581); test: Met autophosphorylation ELISA in PC-3 cells (Example F); type: cell-based; conditions: cellular activity; Met autophosphorylation ELISA in PC-3 cells; read-out: c-Met IC50
In short: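 PC-3 cells, serum-starved 3 h, were treated with compounds (8-point dose curve, 0.3% DMSO final) for 1 h, then stimulated with 100 ng/mL recombinant human HGF for 10 min. Lysate phospho-Met (panTyr) was quantified by sandwich ELISA; IC50 from 4-parameter logistic fit.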

KDR (phospho-KDR, VEGF165-stimulated HUVEC cells), sequence (P35968 20-1356): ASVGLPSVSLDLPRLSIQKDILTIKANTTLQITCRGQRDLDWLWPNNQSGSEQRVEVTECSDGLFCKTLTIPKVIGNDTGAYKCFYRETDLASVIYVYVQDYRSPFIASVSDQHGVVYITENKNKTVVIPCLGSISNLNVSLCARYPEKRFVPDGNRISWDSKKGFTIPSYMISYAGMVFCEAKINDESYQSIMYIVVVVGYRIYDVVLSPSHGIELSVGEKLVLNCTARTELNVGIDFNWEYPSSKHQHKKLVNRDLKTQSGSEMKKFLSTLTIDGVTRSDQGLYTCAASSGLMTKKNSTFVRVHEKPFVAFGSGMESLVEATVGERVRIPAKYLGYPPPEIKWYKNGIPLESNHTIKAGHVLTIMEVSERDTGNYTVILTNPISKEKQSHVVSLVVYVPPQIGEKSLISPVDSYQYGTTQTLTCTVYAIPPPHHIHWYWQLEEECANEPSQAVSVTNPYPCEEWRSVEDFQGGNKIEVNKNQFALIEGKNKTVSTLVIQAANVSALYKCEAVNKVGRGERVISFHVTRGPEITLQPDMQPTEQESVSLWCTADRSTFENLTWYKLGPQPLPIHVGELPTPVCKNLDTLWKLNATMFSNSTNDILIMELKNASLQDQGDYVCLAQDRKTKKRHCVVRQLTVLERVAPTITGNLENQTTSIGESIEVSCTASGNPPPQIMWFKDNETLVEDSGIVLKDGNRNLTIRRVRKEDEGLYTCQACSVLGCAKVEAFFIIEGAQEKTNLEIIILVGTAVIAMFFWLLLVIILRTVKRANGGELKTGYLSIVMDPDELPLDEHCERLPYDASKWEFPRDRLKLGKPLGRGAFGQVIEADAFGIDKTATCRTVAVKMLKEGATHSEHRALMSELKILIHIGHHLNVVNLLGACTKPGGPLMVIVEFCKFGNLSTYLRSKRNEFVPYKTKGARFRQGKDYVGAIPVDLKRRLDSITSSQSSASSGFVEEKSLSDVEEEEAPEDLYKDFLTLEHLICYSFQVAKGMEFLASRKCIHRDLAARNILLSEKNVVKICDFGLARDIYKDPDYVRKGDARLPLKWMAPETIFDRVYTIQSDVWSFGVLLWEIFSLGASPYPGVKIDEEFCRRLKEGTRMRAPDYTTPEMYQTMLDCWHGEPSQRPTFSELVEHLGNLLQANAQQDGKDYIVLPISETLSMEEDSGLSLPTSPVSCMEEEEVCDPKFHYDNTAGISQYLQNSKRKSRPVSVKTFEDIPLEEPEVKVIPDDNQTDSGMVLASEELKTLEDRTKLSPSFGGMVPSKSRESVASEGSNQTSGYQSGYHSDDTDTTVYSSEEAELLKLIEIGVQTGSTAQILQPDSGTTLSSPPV
Met (phospho-Met, HGF-stimulated PC-3 prostate cancer cells), sequence (P08581 25-1390): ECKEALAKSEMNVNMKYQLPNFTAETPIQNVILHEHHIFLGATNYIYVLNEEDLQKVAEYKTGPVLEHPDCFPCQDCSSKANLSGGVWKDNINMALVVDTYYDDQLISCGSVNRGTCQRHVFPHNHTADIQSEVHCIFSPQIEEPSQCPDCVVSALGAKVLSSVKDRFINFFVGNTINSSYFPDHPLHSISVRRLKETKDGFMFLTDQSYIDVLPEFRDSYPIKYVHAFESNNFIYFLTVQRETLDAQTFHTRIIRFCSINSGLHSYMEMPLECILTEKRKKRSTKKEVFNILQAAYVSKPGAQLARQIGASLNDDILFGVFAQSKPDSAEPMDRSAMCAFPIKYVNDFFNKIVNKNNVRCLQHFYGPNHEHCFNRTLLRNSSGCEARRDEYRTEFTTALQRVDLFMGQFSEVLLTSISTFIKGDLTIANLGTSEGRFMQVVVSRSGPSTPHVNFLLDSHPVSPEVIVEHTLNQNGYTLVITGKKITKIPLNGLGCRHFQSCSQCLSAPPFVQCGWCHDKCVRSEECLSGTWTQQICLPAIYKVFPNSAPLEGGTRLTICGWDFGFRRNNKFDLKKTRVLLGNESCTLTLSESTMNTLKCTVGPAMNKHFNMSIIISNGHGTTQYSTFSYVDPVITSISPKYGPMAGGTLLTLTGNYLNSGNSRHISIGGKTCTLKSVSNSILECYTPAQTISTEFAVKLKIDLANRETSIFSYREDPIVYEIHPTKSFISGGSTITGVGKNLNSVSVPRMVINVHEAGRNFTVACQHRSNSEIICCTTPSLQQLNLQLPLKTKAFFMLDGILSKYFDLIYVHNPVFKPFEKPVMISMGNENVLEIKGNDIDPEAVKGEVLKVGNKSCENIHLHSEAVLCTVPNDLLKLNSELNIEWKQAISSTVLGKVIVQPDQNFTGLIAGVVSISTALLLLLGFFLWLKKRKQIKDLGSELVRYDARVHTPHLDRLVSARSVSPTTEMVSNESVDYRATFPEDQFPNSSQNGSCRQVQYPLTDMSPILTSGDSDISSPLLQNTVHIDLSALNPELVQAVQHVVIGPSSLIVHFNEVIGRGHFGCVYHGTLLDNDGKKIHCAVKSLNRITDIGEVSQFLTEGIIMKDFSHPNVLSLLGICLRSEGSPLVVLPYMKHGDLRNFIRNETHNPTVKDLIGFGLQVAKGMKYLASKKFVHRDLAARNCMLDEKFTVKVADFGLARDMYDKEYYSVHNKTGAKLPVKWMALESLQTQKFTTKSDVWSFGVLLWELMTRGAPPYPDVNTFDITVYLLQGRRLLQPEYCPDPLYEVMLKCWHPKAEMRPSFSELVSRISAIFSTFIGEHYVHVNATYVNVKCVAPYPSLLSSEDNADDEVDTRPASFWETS

IC50 [1] [nM] | IC50 [2] [nM] | Structure (SMILES)
> 300 | < 100 | COc1cc2nccc(Oc3ccc(NC(=O)c4cn(C5CC5)c(C)c(-c5ccc(F)cc5C)c4=O)cc3)c2nc1OC [Compound 440, 1-cyclopropyl-N-[4-[(6,7-dimethoxy-1,5-naphthyridin-4-yl)oxy]phenyl]-5-(4-fluoro-2-methylphenyl)-6-methyl-4-oxopyridine-3-carboxamide]
> 300 | < 100 | COc1ccc2nccc(Oc3ccc(NC(=O)c4cn(C5CC5)c(C)c(-c5ccc(F)cc5C)c4=O)cc3F)c2n1 [Compound 441, 1-cyclopropyl-N-[3-fluoro-4-[(6-methoxy-1,5-naphthyridin-4-yl)oxy]phenyl]-5-(4-fluoro-2-methylphenyl)-6-methyl-4-oxopyridine-3-carboxamide]
< 100 | < 100 | COc1cc2nccc(Oc3ccc(NC(=O)c4c(C)nc(OC)c(-c5ccc(F)cc5)c4O)cc3F)c2nc1OC [Compound 442, N-[4-[(6,7-dimethoxy-1,5-naphthyridin-4-yl)oxy]-3-fluorophenyl]-5-(4-fluorophenyl)-4-hydroxy-6-methoxy-2-methylpyridine-3-carboxamide]
> 300 | 100 to 300 | COc1cc2nccc(Oc3ccc(NC(=O)c4c(C)nc(O)c(-c5ccc(F)cc5)c4O)cc3F)c2nc1OC [Compound 443, N-[4-[(6,7-dimethoxy-1,5-naphthyridin-4-yl)oxy]-3-fluorophenyl]-5-(4-fluorophenyl)-4,6-dihydroxy-2-methylpyridine-3-carboxamide]

Source: US12371428B2 (Exelixis, Inc., priority 2019, dated 2025)
